Data reported in the NIST ThermoML archive (doi:10.1021/je5001507).
Numbers after ± are expanded uncertainties.

Key:
[1] = for mass density / viscosity / electrical conductivity: 101.33 kPa, Liquid; for mass density: Vibrating tube method; for surface tension liquid-gas: plate method; for electrical conductivity: Alternating current cell with electrodes
[2] = refractive index (Na D-line) (dimensionless); settings: 101.33 kPa, Liquid, Standard Abbe refractometry

CC(C)C[NH2+]CCCCS(=O)(=O)O.O=S(=O)([O-])O [N-isobutyl-4-sulfobutan-1-aminium hydrogen sulfate]
Settings	electrical conductivity, [1] [S/m]	mass density, [1] [kg/m3]	refractive index, [2]	surface tension liquid-gas, [1] [mN/m]	viscosity, [1] [mPa·s]
293.15 K	–	1359.08 ± 4.6	1.48143 ± 0.0012	–	–
298.15 K	0.593 ± 0.007	–	1.4803 ± 0.0012	47.15 ± 0.71	14433 ± 3300
303.15 K	0.757 ± 0.009	1353.21 ± 4.6	1.47918 ± 0.0012	46.79 ± 0.7	9450 ± 2000
308.15 K	1.04 ± 0.012	–	1.47804 ± 0.0012	46.48 ± 0.7	6033 ± 1200
313.15 K	1.32 ± 0.015	1347.39 ± 4.6	1.47689 ± 0.0012	46.12 ± 0.69	4267 ± 770
318.15 K	1.65 ± 0.019	–	1.47576 ± 0.0012	45.74 ± 0.69	2967 ± 490
323.15 K	2.16 ± 0.023	1341.63 ± 4.5	1.47461 ± 0.0012	45.3 ± 0.68	2117 ± 320
328.15 K	2.53 ± 0.027	–	1.4734 ± 0.0012	44.93 ± 0.67	1550 ± 220
333.15 K	3.01 ± 0.032	1335.95 ± 4.5	1.47212 ± 0.0012	–	1033 ± 130
338.15 K	3.67 ± 0.039	–	–	–	766.7 ± 85
343.15 K	4.29 ± 0.045	1330.29 ± 4.4	–	–	633.3 ± 66
348.15 K	4.96 ± 0.051	–	–	–	483.3 ± 45
353.15 K	5.61 ± 0.058	1324.66 ± 4.4	–	–	383.3 ± 32
358.15 K	–	–	–	–	316.7 ± 24
363.15 K	–	1319.09 ± 4.4	–	–	266.7 ± 19
368.15 K	–	–	–	–	200 ± 12
373.15 K	–	–	–	–	166.7 ± 8.5

CC(C)C[NH2+]CCCS(=O)(=O)O.O=S(=O)([O-])O [N-isobutyl-3-sulfopropan-1-aminium hydrogen sulfate]
Settings	electrical conductivity, [1] [S/m]	mass density, [1] [kg/m3]	refractive index, [2]	surface tension liquid-gas, [1] [mN/m]	viscosity, [1] [mPa·s]
293.15 K	–	1387.92 ± 4.8	1.50559 ± 0.0012	–	–
298.15 K	0.00856 ± 0.00015	–	1.50436 ± 0.0012	52.18 ± 0.78	–
303.15 K	0.0145 ± 0.00021	1383.65 ± 4.8	1.50314 ± 0.0012	51.64 ± 0.77	–
308.15 K	0.0235 ± 0.00032	–	1.50205 ± 0.0012	51.14 ± 0.77	14383 ± 3300
313.15 K	0.0367 ± 0.00047	1377.6 ± 4.8	1.5008 ± 0.0012	50.69 ± 0.76	9083 ± 1900
318.15 K	0.0526 ± 0.00063	–	1.49974 ± 0.0012	50.15 ± 0.75	5533 ± 1100
323.15 K	0.0713 ± 0.00088	1371.59 ± 4.7	1.49851 ± 0.0012	49.58 ± 0.74	3833 ± 670
328.15 K	0.104 ± 0.0012	–	1.49756 ± 0.0012	48.98 ± 0.73	2867 ± 470
333.15 K	0.14 ± 0.0016	1365.64 ± 4.7	1.4963 ± 0.0012	–	1983 ± 300
338.15 K	0.177 ± 0.0019	–	–	–	1333 ± 180
343.15 K	0.221 ± 0.0024	1359.71 ± 4.7	–	–	1033 ± 130
348.15 K	0.28 ± 0.0031	–	–	–	766.7 ± 85
353.15 K	0.353 ± 0.0038	1353.8 ± 4.6	–	–	616.7 ± 63
358.15 K	–	–	–	–	483.3 ± 45
363.15 K	–	1347.97 ± 4.6	–	–	416.7 ± 36
368.15 K	–	–	–	–	333.3 ± 26
373.15 K	–	–	–	–	283.3 ± 20
